{"source": "patent US12653903B2", "about": "“Nanoparticle and use thereof for the combinatorial therapy of endoplasmic reticulum stress inducer and immunotherapeutic to tumors and immune cells” (National Yang Ming Chiao Tung University, priority 2023, dated 2026)", "system": "Panc-02 cells", "settings": "concentration used as equivalent CB dose", "experimental": "Panc-02 cells or NIT-cells were seeded in 96-well plates. Cells were treated with various miR or CB-loaded SLNs formulations. TCA was used to fix the cells after treatment. The wells were then stained with sulforhodamine B (SRB) and rapidly rinsed with acetic acid. Following air drying. Tris base was added to each well, and the plates were examined using an ELISA reader. Cell viability (%)=(The absorbance value of treated cells)(The absorbance value of untreated cells)×100", "data": [{"smiles": "Cc1cc2c(C(N)=O)cccc2n1-c1nc2c(c(NCc3ccccc3)n1)COCC2", "note": "[CB, CB-5083]", "values": [{"measurement": "IC30", "value": 210, "unit": "nM"}]}]}
